Earlier results in patent publication US20060020045A1, “Methods and compositions for treating inflammatory disorders of the gastrointestinal tract” (priority 2004, published 2006).

Test system: dimethylhydrazine-induced colon carcinogenesis
Settings: effect only when present during carcinogen administration, not if given 17 weeks following the carcinogen

CC1=C(CC(=O)O)c2cc(F)ccc2/C1=C\c1ccc([S+](C)[O-])cc1 (stereo not shown) [sulindac]
tumor incidence: reduce tumor incidence only when present during carcinogen administration
